# Experimental data published in publication PMC7181201, “Dual P-Glycoprotein and CA XII Inhibitors: A New Strategy to Reverse the P-gp Mediated Multidrug Resistance (MDR) in Cancer Cells” (Molecules, 2020).
# pKi: −log10 of the molar value.
# Legend:
# hCA IX = biological target: T1, hCA IX (Homo sapiens, UniProt Q16790); experiment: Stopped-flow CO2 hydrase assay, hCA IX; format: biochemical; settings: for more potent on hCA IX than on hCA XII: ratio of Ki values; for pKi: stopped flow, mean from 3 assays
# T1 construct: made in house
# Description: (§1) An SX.18MV-R Applied Photophysics (Oxford, UK) stopped-flow instrument was used to assay the catalytic/inhibition of various CA isozymes. […] Saturated CO2 solutions in water at 25 °C were used as a substrate. Stock solutions of inhibitors were prepared at a concentration of 10 μM (in DMSO-water 1:1, v/v) and dilutions up to 0.01 nM done with the assay buffer mentioned above. […] Inhibitor and enzyme solutions were preincubated together for 10 min at room temperature prior to the assay, in order to allow for the formation of the E–I complex. […] The inhibition constants were obtained by non-linear least-squares methods using the Cheng–Prusoff equation, as reported earlier, and represent the mean from at least three different determinations. All CA isozymes used here were recombinant proteins obtained as reported earlier by our group.
# hCA II = biological target: T2, hCA II (Homo sapiens, UniProt P00918); experiment: Stopped-flow CO2 hydrase assay, hCA II; format: biochemical; settings: for hCA II vs. hCA XII preference: ratio of Ki values; for pKi: stopped flow, mean from 3 assays
# T2 construct: made in house
# Description: as §1
# P-gp = biological target: T3, P-gp (Homo sapiens, UniProt P08183); experiment: Rhodamine-123 uptake test on K562/DOX cells (flow cytometry); format: cell-based
# T3 construct: doxorubicin resistant K562/DOX cell line overexpresses almost exclusively the transporter membrane protein P-gp; endogenous in cells; host or cells: K562/DOX (doxorubicin-selected human erythroleukemia cells)
# Description: The results were expressed as the FR (fluorescence ratio), which is the ratio between the average fluorescence intensity of rhodamine in the presence and in the absence of modulators. Value 1 was attributed to the average fluorescence intensity of the samples exposed only to rhodamine.
# An aliquot of cells (control) was incubated with the fluorochrome in the absence of inhibitors.
# At the end of the uptake, cells were sedimented, washed twice in ice-cold PBS, placed in PBS on ice, and kept in the dark until flow cytometric analysis.
# The histograms were generated by program GraphPad Prism 5 (GraphPad Prism software, Inc., San Diego, CA, USA); the data were obtained from the ratio between the average fluorescence intensity of the samples preincubated with the compounds under study and subsequently exposed to rhodamine, and the fluorescence of the sample exposed only to the rhodamine.
# hCA I = biological target: T4, hCA I (Homo sapiens, UniProt P00915); experiment: Stopped-flow CO2 hydrase assay, hCA I; format: biochemical; settings: mean from 3 assays
# T4 construct: made in house
# Description: as §1
# hCA XII = biological target: T5, hCA XII (Homo sapiens, UniProt O43570); experiment: Stopped-flow CO2 hydrase assay, hCA XII; format: biochemical; settings: for pKi: stopped flow, mean from 3 assays
# T5 construct: made in house
# Description: as §1
# T3 sequence (P08183 whole entry): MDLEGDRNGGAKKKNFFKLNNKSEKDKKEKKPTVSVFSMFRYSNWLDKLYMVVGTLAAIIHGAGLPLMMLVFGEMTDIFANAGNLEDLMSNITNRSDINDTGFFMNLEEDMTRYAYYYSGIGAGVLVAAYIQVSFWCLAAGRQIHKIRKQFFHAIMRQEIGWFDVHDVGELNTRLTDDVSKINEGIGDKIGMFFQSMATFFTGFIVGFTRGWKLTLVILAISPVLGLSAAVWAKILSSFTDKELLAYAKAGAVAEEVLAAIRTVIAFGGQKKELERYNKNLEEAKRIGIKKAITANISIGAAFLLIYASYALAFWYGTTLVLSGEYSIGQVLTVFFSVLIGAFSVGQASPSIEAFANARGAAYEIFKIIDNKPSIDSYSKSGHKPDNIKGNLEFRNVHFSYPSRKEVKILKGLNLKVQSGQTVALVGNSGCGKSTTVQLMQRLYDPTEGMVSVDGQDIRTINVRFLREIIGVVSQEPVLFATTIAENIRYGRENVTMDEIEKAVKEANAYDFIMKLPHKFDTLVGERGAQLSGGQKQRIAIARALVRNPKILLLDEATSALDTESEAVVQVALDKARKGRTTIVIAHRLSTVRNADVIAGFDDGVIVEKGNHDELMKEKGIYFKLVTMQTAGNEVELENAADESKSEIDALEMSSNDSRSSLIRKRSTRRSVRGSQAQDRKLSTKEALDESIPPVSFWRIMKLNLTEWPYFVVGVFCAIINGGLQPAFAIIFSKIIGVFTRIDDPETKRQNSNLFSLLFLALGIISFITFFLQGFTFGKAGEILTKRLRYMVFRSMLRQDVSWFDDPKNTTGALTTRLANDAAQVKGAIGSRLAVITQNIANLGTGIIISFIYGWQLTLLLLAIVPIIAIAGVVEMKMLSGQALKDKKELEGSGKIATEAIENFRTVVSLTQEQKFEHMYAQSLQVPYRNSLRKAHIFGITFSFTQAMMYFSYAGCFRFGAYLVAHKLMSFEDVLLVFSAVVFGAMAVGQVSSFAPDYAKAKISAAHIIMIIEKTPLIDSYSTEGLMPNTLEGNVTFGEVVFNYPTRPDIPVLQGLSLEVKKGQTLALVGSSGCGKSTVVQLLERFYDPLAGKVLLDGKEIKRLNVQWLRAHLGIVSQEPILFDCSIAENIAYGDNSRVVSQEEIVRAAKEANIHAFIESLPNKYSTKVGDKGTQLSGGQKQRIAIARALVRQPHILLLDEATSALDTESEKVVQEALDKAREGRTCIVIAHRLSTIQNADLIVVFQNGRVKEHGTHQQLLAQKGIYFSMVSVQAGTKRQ
# T4 sequence (P00915 whole entry): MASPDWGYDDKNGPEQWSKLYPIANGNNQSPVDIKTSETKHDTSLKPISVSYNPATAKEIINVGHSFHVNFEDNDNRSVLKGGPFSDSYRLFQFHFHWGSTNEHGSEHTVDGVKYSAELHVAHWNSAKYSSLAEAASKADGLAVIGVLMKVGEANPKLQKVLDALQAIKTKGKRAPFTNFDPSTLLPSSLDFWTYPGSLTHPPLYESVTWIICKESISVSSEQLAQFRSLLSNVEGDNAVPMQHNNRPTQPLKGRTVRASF
# T5 sequence (O43570 25-354): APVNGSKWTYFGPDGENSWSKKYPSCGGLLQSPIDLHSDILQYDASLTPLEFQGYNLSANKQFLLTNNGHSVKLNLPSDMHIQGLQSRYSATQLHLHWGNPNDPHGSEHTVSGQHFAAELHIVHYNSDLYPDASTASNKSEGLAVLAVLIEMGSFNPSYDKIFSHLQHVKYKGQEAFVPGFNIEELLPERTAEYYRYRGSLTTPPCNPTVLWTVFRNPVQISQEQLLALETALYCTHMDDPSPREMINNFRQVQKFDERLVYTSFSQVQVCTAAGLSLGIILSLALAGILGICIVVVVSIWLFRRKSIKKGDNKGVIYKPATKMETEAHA
smiles,measurement,setting,value
"COc1cc(C(=O)OCCCCCCN(C)CCCOC(=O)c2ccc(S(N)(=O)=O)cc2)cc(OC)c1OC [Compound 24, 6-(methyl(3-((4-sulfamoylbenzoyl)oxy)propyl)amino)hexyl 3,4,5-trimethoxybenzoate]",more potent on hCA IX than on hCA XII,hCA IX,twice
same,pKi,hCA IX,7.60
same,hCA II vs. hCA XII preference,hCA II,6.5 times
same,pKi,hCA II,8.05
same,"FR (fluorescence ratio, Rhd 123 uptake with/without modulator)",P-gp; compound 3 µM,1.42
same,"FR (fluorescence ratio, Rhd 123 uptake with/without modulator)",P-gp; compound 30 µM,2.88
same,pKi,hCA I,7.08
same,pKi,hCA XII,7.24
"COc1cc(/C=C/C(=O)OCCCN(C)CCCOC(=O)COc2ccc3ccc(=O)oc3c2)cc(OC)c1OC [Compound 1, (E)-3-(methyl(3-(2-((2-oxo-2H-chromen-7-yl)oxy)acetoxy)propyl)amino)propyl 3-(3,4,5-trimethoxyphenyl)acrylate]",pKi,hCA IX,6.85
same,pKi,hCA II,< 5.00
same,"FR (fluorescence ratio, Rhd 123 uptake with/without modulator)",P-gp; compound 3 µM,1.44
same,"FR (fluorescence ratio, Rhd 123 uptake with/without modulator)",P-gp; compound 30 µM,4.76
same,pKi,hCA I,< 5.00
same,pKi,hCA XII,8.03
"COc1cc(/C=C/C(=O)OCCCCCN(C)CCCCCOC(=O)COc2ccc3ccc(=O)oc3c2)cc(OC)c1OC [Compound 4, (E)-5-(methyl(5-(2-((2-oxo-2H-chromen-7-yl)oxy)acetoxy)pentyl)amino)pentyl 3-(3,4,5-trimethoxyphenyl)acrylate]",pKi,hCA IX,7.58
same,pKi,hCA II,< 5.00
same,"FR (fluorescence ratio, Rhd 123 uptake with/without modulator)",P-gp; compound 3 µM,1.99
same,"FR (fluorescence ratio, Rhd 123 uptake with/without modulator)",P-gp; compound 30 µM,5.45
same,pKi,hCA I,< 5.00
same,pKi,hCA XII,7.72
"CN(CCCCCCOC(=O)c1c2ccccc2cc2ccccc12)CCCOC(=O)COc1ccc2ccc(=O)oc2c1 [Compound 13, 6-(methyl(3-(2-((2-oxo-2H-chromen-7-yl)oxy)acetoxy)propyl)amino)hexyl anthracene-9-carboxylate]",pKi,hCA IX,7.08
same,pKi,hCA II,< 5.00
same,"FR (fluorescence ratio, Rhd 123 uptake with/without modulator)",P-gp; compound 3 µM,1.43
same,"FR (fluorescence ratio, Rhd 123 uptake with/without modulator)",P-gp; compound 30 µM,2.45
same,pKi,hCA I,< 5.00
same,preference for hCA XII with respect to hCA IX,hCA XII; ratio of Ki values,nine
same,pKi,hCA XII,8.04
"COc1cc(C(=O)OCCCCCCN(C)CCCOC(=O)COc2ccc3ccc(=O)oc3c2)cc(OC)c1OC [Compound 10, 6-(methyl(3-(2-((2-oxo-2H-chromen-7-yl)oxy)acetoxy)propyl)amino)hexyl 3,4,5-trimethoxy benzoate]",pKi,hCA IX,6.99
same,pKi,hCA II,< 5.00
same,"FR (fluorescence ratio, Rhd 123 uptake with/without modulator)",P-gp; compound 3 µM,1.16
same,"FR (fluorescence ratio, Rhd 123 uptake with/without modulator)",P-gp; compound 30 µM,2.18
same,pKi,hCA I,< 5.00
same,pKi,hCA XII,8.05
"COc1cc(/C=C/C(=O)OCCCCCN(C)CCCCCOC(=O)c2ccc(S(N)(=O)=O)cc2)cc(OC)c1OC [Compound 18, (E)-5-(methyl(5-((3-(3,4,5-trimethoxyphenyl)acryloyl)oxy)pentyl)amino)pentyl 4-sulfamoyl benzoate]",pKi,hCA IX,6.64
same,pKi,hCA II,6.37
same,"FR (fluorescence ratio, Rhd 123 uptake with/without modulator)",P-gp; compound 3 µM,1.00
same,"FR (fluorescence ratio, Rhd 123 uptake with/without modulator)",P-gp; compound 30 µM,4.99
same,pKi,hCA I,7.20
same,pKi,hCA XII,7.20
"COc1cc(/C=C/C(=O)OCCCCCN(C)CCCOC(=O)c2ccc(S(N)(=O)=O)cc2)cc(OC)c1OC [Compound 17, (E)-3-(methyl(5-((3-(3,4,5-trimethoxyphenyl)acryloyl)oxy)pentyl)amino)propyl 4-sulfamoyl benzoate]",pKi,hCA IX,6.67
same,pKi,hCA II,6.69
same,"FR (fluorescence ratio, Rhd 123 uptake with/without modulator)",P-gp; compound 3 µM,1.13
same,"FR (fluorescence ratio, Rhd 123 uptake with/without modulator)",P-gp; compound 30 µM,3.90
same,pKi,hCA I,7.25
same,pKi,hCA XII,7.48
"COc1cc(C(=O)OCCCCCCCN(C)CCOC(=O)COc2ccc3ccc(=O)oc3c2)cc(OC)c1OC [Compound 11, 7-(methyl(2-(2-((2-oxo-2H-chromen-7-yl)oxy)acetoxy)ethyl)amino)heptyl 3,4,5-trimethoxy benzoate]",pKi,hCA IX,7.01
same,pKi,hCA II,< 5.00
same,"FR (fluorescence ratio, Rhd 123 uptake with/without modulator)",P-gp; compound 3 µM,1.11
same,"FR (fluorescence ratio, Rhd 123 uptake with/without modulator)",P-gp; compound 30 µM,1.58
same,pKi,hCA I,< 5.00
same,pKi,hCA XII,8.08
"COc1cc(/C=C/C(=O)OCCCN(C)CCCOC(=O)c2ccc(S(N)(=O)=O)cc2)cc(OC)c1OC [Compound 15, (E)-3-(methyl(3-((3-(3,4,5-trimethoxyphenyl)acryloyl)oxy)propyl)amino)propyl 4-sulfamoyl benzoate]",pKi,hCA IX,6.75
same,pKi,hCA II,6.82
same,"FR (fluorescence ratio, Rhd 123 uptake with/without modulator)",P-gp; compound 3 µM,1.00
same,"FR (fluorescence ratio, Rhd 123 uptake with/without modulator)",P-gp; compound 30 µM,2.30
same,pKi,hCA I,7.26
same,pKi,hCA XII,7.04
"CN(CCCCCCOC(=O)c1c2ccccc2cc2ccccc12)CCCOC(=O)c1ccc(S(N)(=O)=O)cc1 [Compound 27, 6-(methyl(3-((4-sulfamoylbenzoyl)oxy)propyl)amino)hexyl anthracene-9-carboxylate]",pKi,hCA IX,7.55
same,pKi,hCA II,6.37
same,"FR (fluorescence ratio, Rhd 123 uptake with/without modulator)",P-gp; compound 3 µM,1.08
same,"FR (fluorescence ratio, Rhd 123 uptake with/without modulator)",P-gp; compound 30 µM,2.03
same,pKi,hCA I,6.21
same,pKi,hCA XII,7.50
"COc1cc(C(=O)OCCCN(C)CCCCCOC(=O)c2ccc(S(N)(=O)=O)cc2)cc(OC)c1OC [Compound 23, 3-(methyl(5-((4-sulfamoylbenzoyl)oxy)pentyl)amino)propyl 3,4,5-trimethoxybenzoate]",more potent on hCA IX than on hCA XII,hCA IX,twice
same,pKi,hCA IX,7.58
same,pKi,hCA II,6.89
same,"FR (fluorescence ratio, Rhd 123 uptake with/without modulator)",P-gp; compound 3 µM,1.00
same,"FR (fluorescence ratio, Rhd 123 uptake with/without modulator)",P-gp; compound 30 µM,1.66
same,pKi,hCA I,6.55
same,pKi,hCA XII,7.20
"COc1cc(/C=C/C(=O)OCCCN(C)CCCCCOC(=O)c2ccc(S(N)(=O)=O)cc2)cc(OC)c1OC [Compound 16, (E)-5-(methyl(3-((3-(3,4,5-trimethoxyphenyl)acryloyl)oxy)propyl)amino)pentyl 4-sulfamoyl benzoate]",pKi,hCA IX,6.68
same,pKi,hCA II,6.26
same,"FR (fluorescence ratio, Rhd 123 uptake with/without modulator)",P-gp; compound 3 µM,1.08
same,"FR (fluorescence ratio, Rhd 123 uptake with/without modulator)",P-gp; compound 30 µM,1.83
same,pKi,hCA I,6.35
same,pKi,hCA XII,7.03
"CN(CCCCCOC(=O)COc1ccc2ccc(=O)oc2c1)CCCOC(=O)c1c2ccccc2cc2ccccc12 [Compound 12, 3-(methyl(5-(2-((2-oxo-2H-chromen-7-yl)oxy)acetoxy)pentyl)amino)propyl anthracene-9-carboxylate]",pKi,hCA IX,6.82
same,pKi,hCA II,< 5.00
same,"FR (fluorescence ratio, Rhd 123 uptake with/without modulator)",P-gp; compound 3 µM,1.00
same,"FR (fluorescence ratio, Rhd 123 uptake with/without modulator)",P-gp; compound 30 µM,2.53
same,pKi,hCA I,< 5.00
same,pKi,hCA XII,7.34
"COc1cc(/C=C/C(=O)OCCCCCN(C)CCCOC(=O)COc2ccc3ccc(=O)oc3c2)cc(OC)c1OC [Compound 3, (E)-5-(methyl(3-(2-((2-oxo-2H-chromen-7-yl)oxy)acetoxy)propyl)amino)pentyl 3-(3,4,5-trimethoxyphenyl)acrylate]",pKi,hCA IX,7.26
same,pKi,hCA II,< 5.00
same,"FR (fluorescence ratio, Rhd 123 uptake with/without modulator)",P-gp; compound 3 µM,1.00
same,"FR (fluorescence ratio, Rhd 123 uptake with/without modulator)",P-gp; compound 30 µM,2.58
same,pKi,hCA I,< 5.00
same,pKi,hCA XII,7.31
"CN(CCCCCCCOC(=O)c1c2ccccc2cc2ccccc12)CCOC(=O)c1ccc(S(N)(=O)=O)cc1 [Compound 28, 7-(methyl(2-((4-sulfamoylbenzoyl)oxy)ethyl)amino)heptyl anthracene-9-carboxylate]",pKi,hCA IX,7.69
same,pKi,hCA II,6.32
same,"FR (fluorescence ratio, Rhd 123 uptake with/without modulator)",P-gp; compound 3 µM,1.45
same,"FR (fluorescence ratio, Rhd 123 uptake with/without modulator)",P-gp; compound 30 µM,4.25
same,pKi,hCA I,6.62
same,pKi,hCA XII,7.63
"CN(CCCCCCCOC(=O)c1c2ccccc2cc2ccccc12)CCOC(=O)COc1ccc2ccc(=O)oc2c1 [Compound 14, 7-(methyl(2-(2-((2-oxo-2H-chromen-7-yl)oxy)acetoxy)ethyl)amino)heptyl anthracene-9-carboxylate]",pKi,hCA IX,6.90
same,pKi,hCA II,< 5.00
same,"FR (fluorescence ratio, Rhd 123 uptake with/without modulator)",P-gp; compound 3 µM,1.25
same,"FR (fluorescence ratio, Rhd 123 uptake with/without modulator)",P-gp; compound 30 µM,4.22
same,pKi,hCA I,< 5.00
same,pKi,hCA XII,7.37
"COc1cc(/C=C/C(=O)OCCCCCCN(C)CCCCOC(=O)c2ccc(S(N)(=O)=O)cc2)cc(OC)c1OC [Compound 20, (E)-4-(methyl(6-((3-(3,4,5-trimethoxyphenyl)acryloyl)oxy)hexyl)amino)butyl 4-sulfamoyl benzoate]",pKi,hCA IX,7.47
same,hCA II vs. hCA XII preference,hCA II,3 times
same,pKi,hCA II,7.85
same,"FR (fluorescence ratio, Rhd 123 uptake with/without modulator)",P-gp; compound 3 µM,1.01
same,"FR (fluorescence ratio, Rhd 123 uptake with/without modulator)",P-gp; compound 30 µM,2.58
same,pKi,hCA I,7.07
same,pKi,hCA XII,7.38
"COc1cc(/C=C/C(=O)OCCCCCCN(C)CCCOC(=O)c2ccc(S(N)(=O)=O)cc2)cc(OC)c1OC [Compound 19, (E)-3-(methyl(6-((3-(3,4,5-trimethoxyphenyl)acryloyl)oxy)hexyl)amino)propyl 4-sulfamoyl benzoate]",pKi,hCA IX,7.40
same,hCA II vs. hCA XII preference,hCA II,7 times
same,pKi,hCA II,8.08
same,"FR (fluorescence ratio, Rhd 123 uptake with/without modulator)",P-gp; compound 3 µM,1.06
same,"FR (fluorescence ratio, Rhd 123 uptake with/without modulator)",P-gp; compound 30 µM,3.23
same,pKi,hCA I,6.29
same,pKi,hCA XII,7.23
